Assay results taken from patent US10526311B2 (ASTEX THERAPEUTICS LIMITED, priority 2015, dated 2020).
Where two headings read alike, the source gives them in different places.

Key:
SJSA-1 = assay: Protocol B: SJSA-1 CellTiter-Glo cell viability; conditions: for IC50: Homo sapiens, SJSA-1, 72 h, read-out: SJSA1 IC50 (μM) (Protocol B), SJSA-1, Protocol B (CellTiter-Glo), 72 hrs
Experimental: Protocol B: SJSA-1 and SN40R2 Assays
The CellTiter-Glo® Luminescent Cell Viability Assay is a homogeneous method to determine the number of viable cells in culture based on quantitation of the ATP present, which signals the presence of metabolically active cells. […] 100 μl of CTG reagent (Promega #G7573) was added to all wells and luminescence was measured on the topcount. The EC50 values were determined from a sigmoidal 4 parameter curve fit using XLfit in conjunction with Activity Base (IDBS; Guildford, Surrey, UK).

[1] = tested on: SJSA-1 (MDM2 amplified, p53 wild-type osteosarcoma); assay: Protocol A: SJSA-1 growth inhibition (SRB)
Experimental: Protocol A: SJSA-1 and SN40R2 Assays
Following incubation with the SRB dye at room temperature for 30 min, the plates were washed with 1% acetic acid and left to dry. […] The GI50 was calculated by non-linear regression analysis of the data using Prism v4.0 statistical software.

[2] = target: MDM2-p53 interaction (in vitro translated MDM2, biotinylated IP3 peptide) (Homo sapiens, UniProt Q00987); assay: MDM2-p53 interaction 96-well plate binding assay (ELISA); conditions: read-out: MDM2 % @ concentration
Experimental: The ELISA assay was performed in streptavidin coated plates which were preincubated with 200 μl per well of 1 μg ml^−1 biotinylated IP3 peptide. The plates were ready to use for MDM2 binding after washing the plate with PBS.
The unbound secondary antibody was removed by washing three times with TBS-Tween. The bound HRP activity was measured by enhanced chemiluminesence (ECL™, Amersham Biosciences) using the oxidation of the diacylhydrazide substrate, luminol, to generate a quantifiable light signal. The percentage of MDM2 inhibition at a given concentration is calculated as the [1−(RLU detected in the compound treated sample−RLU negative DMSO control)÷(RLU of DMSO positive and negative controls)]×100 or as the (RLU detected in the compound treated sample÷RLU of DMSO controls)×100. The IC50 was calculated using a plot of % MDM2 inhibition vs concentration and is the average of two or three independent experiments.

[3] = Homo sapiens, SJSA-1, 72 h, read-out: SJSA-1 IC50 (μM) (Protocol A), SJSA-1, Protocol A (SRB), 72 hrs

Chain of MDM2-p53 interaction (in vitro translated MDM2, biotinylated IP3 peptide) (Q00987 whole entry): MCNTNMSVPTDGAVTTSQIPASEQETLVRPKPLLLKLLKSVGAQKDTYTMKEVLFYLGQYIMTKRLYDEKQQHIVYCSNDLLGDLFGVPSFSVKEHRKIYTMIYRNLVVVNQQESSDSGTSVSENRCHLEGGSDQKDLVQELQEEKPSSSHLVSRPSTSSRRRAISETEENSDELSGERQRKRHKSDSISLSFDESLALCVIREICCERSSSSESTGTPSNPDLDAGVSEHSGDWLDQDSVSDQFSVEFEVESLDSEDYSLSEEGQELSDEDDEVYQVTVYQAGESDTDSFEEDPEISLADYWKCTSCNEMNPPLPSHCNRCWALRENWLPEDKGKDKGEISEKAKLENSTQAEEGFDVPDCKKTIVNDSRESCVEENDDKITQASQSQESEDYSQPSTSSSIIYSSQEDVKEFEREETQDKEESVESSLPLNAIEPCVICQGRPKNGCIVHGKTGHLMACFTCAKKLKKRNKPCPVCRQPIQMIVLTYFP

For CCC(O)(c1cc(F)c2c(c1)C(=O)N(Cc1ncc(C#N)cn1)[C@@]2(OCCO)c1ccc(Cl)cc1)[C@H]1CC[C@H](O)CC1 (stereo partly drawn) [Example 510, 2-{[(1R)-1-(4-chlorophenyl)-7-fluoro-5-{1-hydroxy-1-[trans-4-hydroxycyclohexyl]propyl}-1-(2-hydroxyethoxy)-3-oxo-2,3-dihydro-1H-isoindol-2-yl]methyl}pyrimidine-5-carbonitrile], the IC50 (SJSA-1) was 0.073 µM and the IC50 [1, 3] was 0.084 µM.
For CCC(O)(c1cc(F)c2c(c1)C(=O)N(Cc1ncc(Cl)cn1)[C@@]2(O[C@H]1C[C@@H](O)C1)c1ccc(Cl)cc1)C1(F)CCN(C)CC1 (single isomer, unassigned) [Example 570], the IC50 (SJSA-1) was 0.046 µM and the IC50 [1, 3] was 0.034 µM.
CCC(O)(c1cc(F)c2c(c1)C(=O)N(Cc1ccc(C#N)nc1)[C@@]2(O[C@H]1CCOC1)c1ccc(Cl)cc1)c1cn(C)cn1 (single isomer, unassigned) [Example 431] was tested, and the IC50 [1, 3] was 0.11 µM.
For CCC(O)(c1cc(F)c2c(c1)C(=O)N(Cc1ncc(Cl)cn1)[C@@]2(OCC1(C(N)=O)CC1)c1ccc(Cl)cc1)c1cn(C)cn1 (stereo partly drawn) [Example 486, 1-({[(1R)-1-(4-chlorophenyl)-2-[(5-chloropyrimidin-2-yl)methyl]-7-fluoro-5-[1-hydroxy-1-(1-methyl-1H-imidazol-4-yl)propyl]-3-oxo-2,3-dihydro-1H-isoindol-1-yl]oxy}methyl) cyclopropane-1-carboxamide], the IC50 [1, 3] was 0.075 µM.
CCC(O)(c1cc(F)c2c(c1)C(=O)N(Cc1ncc(Cl)cn1)[C@@]2(O[C@H]1CCOC1)c1ccc(Cl)cc1)c1cn(C)cn1 (single isomer, unassigned) [Example 475] showed an IC50 [1, 3] of 0.028 µM.
CCC(O)(c1cc(F)c2c(c1)C(=O)N(Cc1ccc(C#N)cn1)[C@@]2(OCCOC)c1ccc(Cl)cc1)c1cn(C)cn1 (single isomer, unassigned) [Example 430] showed an IC50 (SJSA-1) of 0.18 µM and an IC50 [1, 3] of 0.11 µM.
CCC(O)(c1cc(F)c2c(c1)C(=O)N(Cc1ncc(C#N)cn1)[C@@]2(OCC1(C#N)CC1)c1ccc(Cl)cc1)c1cn(C)cn1 (single isomer, unassigned) [Example 462] was tested, and the IC50 (SJSA-1) was 0.047 µM and the IC50 [1, 3] was 0.073 µM.
Work on CCC(O)(c1cc(F)c2c(c1)C(=O)N(Cc1ncc(Cl)cn1)[C@@]2(OCCO)c1ccc(Cl)cc1)[C@H]1CC[C@H](O)CC1 (single isomer, unassigned) [Example 517] yielded an IC50 [1, 3] of 0.019 µM.
In the case of CCC(O)(c1cc(F)c2c(c1)C(=O)N(Cc1ncc(Cl)cn1)[C@@]2(OCC1(CO)CC1)c1ccc(Cl)cc1)c1cn(C)cn1 (single isomer, unassigned) [Example 477], the IC50 [1, 3] is reported as 0.013 µM.
With CC(O)(CO)c1cc(F)c2c(c1)C(=O)N(Cc1ccc(Cl)cn1)[C@@]2(OCC1(CO)CC1)c1ccc(Cl)cc1 (stereo partly drawn) [Example 17, (3R)-3-(4-Chlorophenyl)-2-[(5-chloropyridin-2-yl)methyl]-6-(1,2-dihydroxypropan-2-yl)-4-fluoro-3-({1-[hydroxy(^2H2)methyl]cyclopropyl}(^2H2)methoxy)-2,3-dihydro-1H-isoindol-1-one] the IC50 ([1]; read-out: SJSA-1 IC50 (Protocol A), SJSA-1 cells, SRB, 72 hrs) was 0.1 µM.
C[C@@H](CO[C@]1(c2ccc(Cl)cc2)c2c(F)cc(C(C)(C)O)cc2C(=O)N1Cc1ccc(Cl)cn1)C(N)=O [Example 167, (2S)-3-{[(1R)-1-(4-Chlorophenyl)-2-[(5-chloropyridin-2-yl)methyl]-7-fluoro-5-(2-hydroxypropan-2-yl)-3-oxo-2,3-dihydro-1H-isoindol-1-yl]oxy}-2-methylpropanamide] gave an IC50 ([1]; Homo sapiens, SJSA-1, 72 h, read-out: SJSA-1 IC50 (Protocol A), SJSA-1 cells, SRB, 72 hrs) of 0.64 µM.
CCC(O)(c1cc(F)c2c(c1)C(=O)N(Cc1ccc(C#N)cn1)[C@@]2(OC[C@@H](C)O)c1ccc(Cl)cc1)C1(F)CCOCC1 (single isomer, unassigned) [Example 498] was tested, and the “SJSA1 (Protocol B) % at concentration” value (SJSA-1; SJSA-1, Protocol B, at 10 μM) was 96% at 10 and the inhibition at 0.1 µM ([2]; @ 0.10 μM) was 32%.
In the case of CCC(O)(c1cc(F)c2c(c1)C(=O)N(Cc1ncc(C#N)cn1)[C@@]2(O[C@H]1CCOC1)c1ccc(Cl)cc1)[C@H]1CC[C@H](O)CC1 (stereo partly drawn) [Example 503, 2-{[(1R)-1-(4-chlorophenyl)-7-fluoro-5-{1-hydroxy-1-[trans-4-hydroxycyclohexyl]propyl}-3-oxo-1-[(3S)-oxolan-3-yloxy]-2,3-dihydro-1H-isoindol-2-yl]methyl}pyrimidine-5-carbonitrile], the IC50 (SJSA-1) is reported as 0.011 µM and the inhibition at 0.001 µM ([2]; @ 0.0010 μM) is reported as 87%.
